Laboratory results: publication PMC11013419, “Understanding Antidiabetic Potential of Oligosaccharides from Red Alga Dulse Devaleraea inkyuleei Xylan by Investigating α-Amylase and α-Glucosidase Inhibition” (Molecules, 2024)

Legend:
α-glucosidase = test system: α-glucosidase; set-up: method as in doi:10.1007/s12257-017-0049-8; conditions: at 10 mg/mL; cited from earlier work
MGAM [1] = target: MGAM; set-up: method as in PMID 22058037; conditions: as reported; cited from earlier work
[2] = target: T1, recombined human maltase-glucoamylase (MGAM) (Homo sapiens, UniProt O43451); experiment: MGAM inhibition assay (glucose released from maltose); format: biochemical; conditions: maltose substrate, 37 °C, pH 6.4
T1 construct: made in house
T1 sequence (O43451 whole entry): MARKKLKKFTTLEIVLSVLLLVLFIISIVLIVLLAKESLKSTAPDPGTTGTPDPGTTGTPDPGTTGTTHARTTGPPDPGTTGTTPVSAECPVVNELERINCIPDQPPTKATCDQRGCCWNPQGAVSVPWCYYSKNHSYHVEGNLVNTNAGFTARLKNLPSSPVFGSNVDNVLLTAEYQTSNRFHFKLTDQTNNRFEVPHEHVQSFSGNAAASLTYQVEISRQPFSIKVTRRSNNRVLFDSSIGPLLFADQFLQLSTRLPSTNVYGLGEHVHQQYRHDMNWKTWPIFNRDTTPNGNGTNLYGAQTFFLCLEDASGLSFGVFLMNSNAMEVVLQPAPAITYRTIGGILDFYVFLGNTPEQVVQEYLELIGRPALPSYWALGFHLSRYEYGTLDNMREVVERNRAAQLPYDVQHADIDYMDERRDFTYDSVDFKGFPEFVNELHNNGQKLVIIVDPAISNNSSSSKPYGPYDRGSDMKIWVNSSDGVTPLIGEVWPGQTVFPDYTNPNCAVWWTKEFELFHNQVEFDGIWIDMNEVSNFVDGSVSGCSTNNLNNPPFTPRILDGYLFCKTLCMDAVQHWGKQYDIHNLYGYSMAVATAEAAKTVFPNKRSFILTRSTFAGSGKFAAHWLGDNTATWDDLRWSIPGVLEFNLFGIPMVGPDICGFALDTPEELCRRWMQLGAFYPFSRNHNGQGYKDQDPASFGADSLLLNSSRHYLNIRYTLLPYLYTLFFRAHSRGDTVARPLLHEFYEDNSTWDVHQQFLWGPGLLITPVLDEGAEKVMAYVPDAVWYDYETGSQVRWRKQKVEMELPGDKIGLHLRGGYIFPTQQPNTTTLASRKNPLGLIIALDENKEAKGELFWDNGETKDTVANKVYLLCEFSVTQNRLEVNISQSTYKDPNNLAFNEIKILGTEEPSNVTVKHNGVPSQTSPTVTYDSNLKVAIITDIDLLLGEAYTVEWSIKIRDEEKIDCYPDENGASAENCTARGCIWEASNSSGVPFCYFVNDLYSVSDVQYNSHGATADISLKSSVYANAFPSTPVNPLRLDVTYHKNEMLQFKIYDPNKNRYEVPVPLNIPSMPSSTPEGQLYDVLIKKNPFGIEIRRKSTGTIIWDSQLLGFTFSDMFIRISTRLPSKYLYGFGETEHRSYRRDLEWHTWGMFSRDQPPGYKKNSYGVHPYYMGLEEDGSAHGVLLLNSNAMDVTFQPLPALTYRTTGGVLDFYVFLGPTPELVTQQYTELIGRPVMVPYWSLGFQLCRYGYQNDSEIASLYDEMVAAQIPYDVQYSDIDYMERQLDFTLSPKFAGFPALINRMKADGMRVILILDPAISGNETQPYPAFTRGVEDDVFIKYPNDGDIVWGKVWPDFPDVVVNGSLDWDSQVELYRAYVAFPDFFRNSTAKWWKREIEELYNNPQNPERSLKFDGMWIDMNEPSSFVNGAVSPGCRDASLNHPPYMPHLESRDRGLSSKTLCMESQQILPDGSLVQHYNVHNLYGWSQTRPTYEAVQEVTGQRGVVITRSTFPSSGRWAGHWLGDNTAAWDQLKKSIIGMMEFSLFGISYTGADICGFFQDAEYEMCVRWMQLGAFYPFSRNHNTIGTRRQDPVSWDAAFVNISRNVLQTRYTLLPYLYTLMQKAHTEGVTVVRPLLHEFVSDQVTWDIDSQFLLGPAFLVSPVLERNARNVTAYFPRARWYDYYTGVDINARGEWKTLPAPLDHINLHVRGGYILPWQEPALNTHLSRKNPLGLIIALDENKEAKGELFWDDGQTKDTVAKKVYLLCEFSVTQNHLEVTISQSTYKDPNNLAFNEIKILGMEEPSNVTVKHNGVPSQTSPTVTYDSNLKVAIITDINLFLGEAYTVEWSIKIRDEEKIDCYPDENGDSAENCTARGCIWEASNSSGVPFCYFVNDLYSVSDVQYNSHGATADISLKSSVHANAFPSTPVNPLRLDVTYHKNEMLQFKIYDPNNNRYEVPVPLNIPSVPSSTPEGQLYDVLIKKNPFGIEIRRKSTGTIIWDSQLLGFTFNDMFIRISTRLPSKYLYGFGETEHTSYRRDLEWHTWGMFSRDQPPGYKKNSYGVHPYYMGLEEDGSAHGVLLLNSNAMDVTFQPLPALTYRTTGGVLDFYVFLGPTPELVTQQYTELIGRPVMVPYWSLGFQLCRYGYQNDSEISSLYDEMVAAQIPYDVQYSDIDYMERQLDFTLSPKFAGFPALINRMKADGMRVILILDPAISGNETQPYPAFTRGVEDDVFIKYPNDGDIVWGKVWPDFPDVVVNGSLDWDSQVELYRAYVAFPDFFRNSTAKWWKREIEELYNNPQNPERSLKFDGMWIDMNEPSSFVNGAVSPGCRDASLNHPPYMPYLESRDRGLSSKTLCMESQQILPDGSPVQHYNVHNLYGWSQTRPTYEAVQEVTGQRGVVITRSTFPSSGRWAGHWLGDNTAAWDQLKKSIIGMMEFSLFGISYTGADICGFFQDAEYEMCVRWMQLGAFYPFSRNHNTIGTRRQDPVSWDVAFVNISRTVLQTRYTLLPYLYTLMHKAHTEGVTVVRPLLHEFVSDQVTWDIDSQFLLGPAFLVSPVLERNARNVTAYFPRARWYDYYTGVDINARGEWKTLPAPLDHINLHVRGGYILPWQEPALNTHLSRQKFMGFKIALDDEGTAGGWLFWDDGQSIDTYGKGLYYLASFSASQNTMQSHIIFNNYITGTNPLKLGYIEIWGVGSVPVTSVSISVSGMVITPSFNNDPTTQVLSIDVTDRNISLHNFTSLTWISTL
Protocol: (§1) For this experiment, recombined human maltase-glucoamylase (MGAM) was prepared as previously reported and dissolved in 0.1 M phosphate buffer (pH 6.4) to produce a solution at 0.5 U/mL. Pre-incubation was initiated by mixing 20 µL of MGAM solution with 20 µL of inhibitor or distilled water for 10 min at 37 °C. Then, 40 µL of 8 mM maltose or phosphate buffer was added and the mixture was incubated at 37 °C for 10 min, and the reaction was stopped by boiling for 10 min and cooling in an ice bath. Glucose was quantified using a Glucose CII-test (Wako Pure Chemical Industries, Osaka, Japan). The 20 µL reaction mixture was added to a 100 µL of Glucose CII-test. The reaction proceeded for 10 min at 37 °C, and the absorbance at 492 nm was measured. The inhibition was analysed at different inhibitor and substrate concentrations. The half-maximum inhibition concentration (IC50) was calculated using nonlinear regression. The MGAM inhibitory activity was calculated as follows: MGAM inhibitory activity=1−As−A0/Ac×100 where As represents the absorbance of the sample, Ac is the absorbance of the control without the inhibitor, and A0 is the absorbance of the sample without MGAM.

MGAM [3] = target: T2, MGAM (Homo sapiens, UniProt O43451); experiment: Kinetics of MGAM inhibition (Michaelis–Menten, Lineweaver–Burk); format: biochemical; conditions: for Inhibition Type (MGAM): Lineweaver–Burk plot; for Vmax^app, inhibitor concentration A / Vmax^app, inhibitor concentration B / Vmax^app, inhibitor concentration C: MGAM, without inhibitor 0.089; for Vmax^app, inhibitor concentration A: A: X2 1.49, X3 1.63, DX3 1.33, DX4 1.28 mg/mL; for Vmax^app, inhibitor concentration B: B: X2 2.79, X3 4.08, DX3 3.32, DX4 3.19 mg/mL; for Vmax^app, inhibitor concentration C: C: X2 3.73, X3 10.19, DX3 8.30, DX4 7.98 mg/mL; for Ki: competitive inhibition constant
T2 construct: made in house
T2 sequence (O43451 whole entry): as above
Protocol: as §1
To study the kinetics of MGAM and α-amylase inhibition by XOS, the initial velocity in absorbance/min (ΔOD/min) was calculated at different substrate concentrations (0 to 10 mg/mL starch concentration for α-amylase and 0 to 8 mM maltose concentration for MGAM) and XOS concentrations. The values of initial velocity at different substrate concentrations at each XOS concentration was plotted (Michaelis–Menten plot), as well as the double reciprocal plot at each XOS concentration (Lineweaver–Burk plot).
The Michaelis–Menten equation for competitive inhibition is given as follows: v=Vmax×S/Km1+I/Ki+S=Vmaxapp×S/Kmapp+S
And the corresponding Lineweaver–Burk equation is given as follows: 1/v=Km/Vmax1+I/Ki1/S+1/Vmax where v is the initial velocity, Vmax is the maximum initial reaction velocity, I is the concentration of the inhibitor, S is the concentration of the substrate, Km is the Michaelis constant, and Ki is the competitive inhibition constant.

[4] = target: T3, α-amylase from porcine pancreas (Sus scrofa, UniProt P00690); experiment: α-Amylase inhibition assay (starch, DNS method); format: biochemical; conditions: for IC50: porcine pancreas α-amylase, 1% starch, 37 °C, pH 6.9
T3 construct: α-amylase from porcine pancreas (EC 3.2.1.1), type VI-B; purchased Sigma Aldrich type VI-B; host or cells: porcine pancreas
T3 sequence (P00690 16-511): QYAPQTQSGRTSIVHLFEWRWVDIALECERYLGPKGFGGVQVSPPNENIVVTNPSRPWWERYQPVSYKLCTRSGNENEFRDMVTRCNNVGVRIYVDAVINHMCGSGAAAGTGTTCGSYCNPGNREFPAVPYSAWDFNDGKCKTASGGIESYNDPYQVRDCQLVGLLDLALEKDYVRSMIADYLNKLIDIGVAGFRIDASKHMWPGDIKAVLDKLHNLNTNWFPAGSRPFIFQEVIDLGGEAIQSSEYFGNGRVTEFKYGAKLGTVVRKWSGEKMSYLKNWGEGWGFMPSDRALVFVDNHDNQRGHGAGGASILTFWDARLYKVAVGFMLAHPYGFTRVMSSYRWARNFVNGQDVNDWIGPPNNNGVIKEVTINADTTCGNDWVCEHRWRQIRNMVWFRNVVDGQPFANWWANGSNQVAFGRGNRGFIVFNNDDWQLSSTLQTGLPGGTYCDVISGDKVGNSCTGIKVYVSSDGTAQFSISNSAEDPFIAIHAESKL
Protocol: (§2) The α-amylase from porcine pancreas solution was freshly prepared by mixing enzyme powder with 20 mM phosphate buffer (pH 6.9) containing 6.7 mM NaCl to produce a solution at 3 U/mL [39]. Pre-incubation was initiated by mixing 20 µL of α-amylase solution with 20 µL of inhibitor or distilled water for 10 min at 37 °C. Then, 20 µL of 1% (w/v) starch (prepared in 20 mM phosphate buffer (pH 6.9) containing 6.7 mM NaCl and heated at 100 °C for 10 min) or phosphate buffer was added, and the mixture was incubated at 37 °C for 10 min. The reaction was stopped by boiling the mixture for 10 min and cooling in an ice bath. The concentration of reducing sugars was calculated by the DNS method. The inhibition was analysed at different inhibitor and substrate concentrations. The half-maximum inhibition concentration (IC50) was calculated using nonlinear regression. The α-amylase inhibitory activity was calculated as follows: α-amylase inhibitory activity=1−As−A0/Ac×100 where As represents the absorbance of the sample, Ac is the absorbance of the control without the inhibitor, and A0 is the absorbance of the sample without α-amylase.

α-amylase = target: T4, α-amylase (Sus scrofa, UniProt P00690); experiment: Kinetics of α-amylase inhibition (Michaelis–Menten, Lineweaver–Burk); format: biochemical, porcine
T4 construct: α-amylase from porcine pancreas (EC 3.2.1.1), type VI-B; purchased Sigma Aldrich type VI-B; host or cells: porcine pancreas
T4 sequence (P00690 16-511): T3 sequence (P00690 16-511)
Protocol: as §2, with “α-amylase. […]” for “α-amylase.”

In the case of `OC[C@H]1OC(O)[C@H](O)[C@@H](O[C@@H]2O[C@H]3CO[C@@H]([C@@H]2O)[C@@H]3O)[C@H]1O` (stereo partly shown) [neoagarobiose], the inhibition rate (α-glucosidase) is given as 35.3%.
For `C[C@H]1O[C@H](O[C@H]2[C@H](O)[C@@H](O)[C@@H](O[C@H]3[C@H](O)[C@@H](O)C(O)O[C@@H]3CO)O[C@@H]2CO)[C@H](O)[C@@H](O)[C@@H]1N[C@H]1C=C(CO)[C@@H](O)[C@H](O)[C@H]1O` (stereo partly shown) [Acarbose], the Ki (MGAM [1]) is given as 0.062 mM and the “Ki for MGAM” value (MGAM [1]) is given as 40 mg/L.
With `OC1COC(OC2C(O)COC(OC3COC(OC4COC(O)C(O)C4O)C(O)C3O)C2O)C(O)C1O` (stereo not drawn) [DX4, β-(1→3)-xylosyl-β-(1→4)-xylotriose] the IC50 [2] was 23.6 mM, the “Inhibition Type (MGAM)” value (MGAM [3]) was “Competitive” and the “Vmax^app, inhibitor concentration A” value (MGAM [3]) was 0.102 DO/min. The “Vmax^app, inhibitor concentration B” value (MGAM [3]) was 0.105 DO/min, the “Vmax^app, inhibitor concentration C” value (MGAM [3]) was 0.102 DO/min and the Ki (MGAM [3]) was 42.7 mM. The inhibition at 10640 µg/mL ([4]; at 10.64 mg/mL) was 2.9%.
In the case of `OC1COC(OC2C(O)COC(OC3COC(O)C(O)C3O)C2O)C(O)C1O` (stereo not drawn) [DX3, β-(1→3)-xylosyl-β-(1→4)-xylobiose], the IC50 [2] is reported as 32.3 mM, the “Inhibition Type (MGAM)” value (MGAM [3]) is reported as “Competitive” and the “Vmax^app, inhibitor concentration A” value (MGAM [3]) is reported as 0.101 DO/min. The “Vmax^app, inhibitor concentration B” value (MGAM [3]) was 0.093 DO/min, the “Vmax^app, inhibitor concentration C” value (MGAM [3]) was 0.102 DO/min and the Ki (MGAM [3]) was 44.2 mM. The IC50 [4] was 128 mM.
For `OC[C@H]1O[C@@H](O)[C@H](O)[C@@H](O[C@@H]2O[C@H]3CO[C@@H]([C@@H]2O)[C@@H]3O[C@@H]2O[C@H](CO)[C@H](O)[C@H](O[C@@H]3O[C@H]4CO[C@@H]([C@@H]3O)[C@@H]4O)[C@H]2O)[C@H]1O` [neoagarotetraose], the inhibition rate (α-glucosidase) is given as 33.2%.
In the case of `OC[C@H]1O[C@@H](O)[C@H](O)[C@@H](O[C@@H]2O[C@H]3CO[C@@H]([C@@H]2O)[C@@H]3O[C@@H]2O[C@H](CO)[C@H](O)[C@H](O[C@@H]3O[C@H]4CO[C@@H]([C@@H]3O)[C@@H]4O[C@@H]3O[C@H](CO)[C@H](O)[C@H](O[C@@H]4O[C@H]5CO[C@@H]([C@@H]4O)[C@@H]5O)[C@H]3O)[C@H]2O)[C@H]1O` [neoagarohexaose], the inhibition rate (α-glucosidase) is listed as 17.0%.
With `OC1COC(OC2COC(O)C(O)C2O)C(O)C1O` (stereo not drawn) [X2, β-(1→4)-xylobiose] the IC50 [2] was 45 mM, the “Inhibition Type (MGAM)” value (MGAM [3]) was “Competitive” and the “Vmax^app, inhibitor concentration A” value (MGAM [3]) was 0.086 DO/min. For the same compound, the “Vmax^app, inhibitor concentration B” value (MGAM [3]) was 0.086 DO/min, the “Vmax^app, inhibitor concentration C” value (MGAM [3]) was 0.086 DO/min and the Ki (MGAM [3]) was 53.9 mM. The IC50 [4] was 64 mM, the “Inhibition type (α-amylase)” value (α-amylase; Lineweaver–Burk plot) was “competitive” and the “Vmax^app (α-amylase)” value (α-amylase; X2 12.42 mg/mL, X3 13.58 mg/mL, without inhibitor 0.056) was 0.061 DO/min.
